# Results published in the NIST ThermoML archive (doi:10.1016/j.jct.2015.07.028).
# Numbers after ± are expanded uncertainties.
# Experiments:
# [1] = Molar enthalpy of transition or fusion; conditions: Adiabatic calorimetry
# [2] = molar enthalpy of vaporization or sublimation; conditions: 305.12 K; Liquid; Static calorimetry
smiles,measurement,setting,value
C=CC(C)(C)O [2-methyl-3-buten-2-ol],Molar enthalpy of transition or fusion,[1]; Crystal 1,1.243 ± 0.0112 kcal/mol
same,Molar enthalpy of transition or fusion,[1]; Crystal 2,0.0406 ± 0.011 kcal/mol
same,molar enthalpy,[2],11.2 ± 0.382 kcal/mol
